From patent US20070092475A1, “Methods for enhancing the morphology, tone, texture and/or appearance of skin using a Meadowestolide” (priority 2005, published 2007)

Columns and labels:
[1] = In vitro water binding experiments (water retention by loss on drying); assay type: physicochemical; conditions: for water retention (FIG. 1 and FIG. 2), in words: 3 ml substance over 10 ml distilled water, after mixing
Description: It was postulated that, as a result of the structure of the Meadowestolide prepared in Example 1, which has a carboxylic acid function and an ester linkage in juxtaposition to one another, a considerable degree of hydrogen-bonding and consequent water binding should be evident. Consequently, in vitro experiments to test this theory employing the Meadowestolide, as well as the carefully selected comparative control compounds described below, were conducted.
The Meadowestolide prepared in Example 1 (3 ml) and the control substances (3 ml) were carefully layered over distilled water (10 ml) using a long-nosed pipette, hand mixed for 30 seconds and photographed using a Sony Digital DSC-F505V Camera equipped with a Carl Zeiss Vario-Sonner lens. The degree of water retention was then examined by measuring the “loss on drying” (water removed from lipid phase […]). The upper lipid phase was completely removed using a long-nose pipette and analyzed for water content by “loss on drying” using a drying oven at 105 degrees centigrade until there was no longer any change in weight.

[2] = Analytical results on purified Meadowestolide (stability); assay type: physicochemical
Source text: The purified Meadowestolide was identified and subsequently quantified by infrared spectroscopy and HPLC coupled with an evaporative light-scattering detector.

human skin [3] = test: In vivo transepidermal water loss (TEWL), ServoMed Evaporimeter; conditions: one application neat (100%) to forearm, about 2 minutes; twenty subjects; FIG. 3
Source text: (§1) TEWL and tissue hydration (of the stratum comeum) experiments were designed to evaluate the moisture retention properties of the Meadowestolide described in Example 1 in comparison with a relevant oil and a non-polymerized ester. Thus, for these studies, the natural oil to select as a control was Meadowfoam seed oil since it was the precursor oil from which the Meadowestolide was derived. […] Thus, in these experiments, the following substances were compared: (a) Meadowfoam seed oil (triglyceride oil); (b) a long-chain guerbet ester of meadowfoam fatty acid (CH3(CH2)9CH((CH)2O(CO)(CH2)22CH3)((CH2)7CH3); and (c) the Meadowestolide prepared in Example 1.
(§2) These experiments were conducted to assess and compare the moisturizing efficacy of the Meadowestolide and appropriate controls on human skin using a NOVA Technology Corporation (Portsmouth, N.H.) Dermal Phase Meter 9003 (DPM) and a ServoMed Evaporimeter (ServoMed, Sweden). The combined use of these instruments assesses the moisturizing and barrier enhancement properties of topically applied materials. […]
A ServoMed Evaporimeter was used to measure transepidermal water loss (TEWL). A hand-held probe on this meter samples the relative humidity at two points above the skin surface, thereby allowing the rate of water loss to be calculated from the humidity gradient. Measurements are recorded as g/m2/hr. […]

human skin [4] = test: In vivo tissue hydration of the stratum corneum, Dermal Phase Meter 9003; conditions: one application neat (100%) to forearm, FIG. 3
Source text: as §1, §2
In the tissue hydration experiments, a Dermal Phase Meter 9003 was used to quantify moisture content in the stratum comeum (SC) by an electrical capacitance method. […] The Dermal Phase Meter 9003 numbers are directly related to the electrical capacitance of the skin measured as picoFarads (pF).

| Structure (SMILES) | water retention (FIG. 1 and FIG. 2), in words [1] | water bound, relative to Jojoba oil ([1]; 3 ml substance layered over 10 ml distilled water, hand mixed 30 seconds, loss on drying of lipid phase at 105 degrees centigrade, vs Jojoba oil) | water bound, relative to Meadowfoam seed oil and meadowfoam fatty acid ([1]; 3 ml substance layered over 10 ml distilled water, hand mixed 30 seconds, loss on drying of lipid phase at 105 degrees centigrade, vs Meadowfoam seed oil and meadowfoam fatty acid) | stability [2] | transepidermal water loss (TEWL), in words (human skin [3]) | tissue hydration, in comparison with Meadowfoam seed oil, in words (human skin [4]; about 2 minutes, twenty subjects) | hydration capability, in comparison with the guerbet ester of meadowfoam fatty acid, in words (human skin [4]; molecular sizes reasonably equivalent) |
| --- | --- | --- | --- | --- | --- | --- | --- |
| CCCCCCCCCCCCCCCCC=CCCCC(=O)O [meadowfoam fatty acid, CH3—(CH2)15—(CH)2—(CH2)3—COOH, reference compound] | retained a small quantity of water |  |  |  |  |  |  |
| CCCCCCCCCCCCCC/C=C/CCCC(=O)OC(CCCCCCCCCCCCCCC)CCCC(=O)O (centres unmarked) [Meadowestolide] | capable of binding water to a significant extent | approximately nine | approximately four | extended stability | very efficient in preventing water loss | improved hydration | hydration capability exceeds that of a simple ester |
